ChEMBL document CHEMBL1201862, “PubChem BioAssay data set” (2004)
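Tested at 5 concentrations; 48 h exposure; 96-well plates; endpoints linearly interpolated, else capped at highest concentration. At the GI50, growth is halved.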 Calls of active or inactive are those of the source. Rule as the data show it: active = GI50 up to about 1.1 µM and inactive = higher.

Columns and labels:
Assay in all cases: DTP human tumour cell line panel, 48 h
SW-620 = test system: SW-620
IGROV-1 = test system: IGROV-1
MOLT-4 = test system: MOLT-4
UACC-257 = test system: UACC-257
SK-OV-3 = test system: SK-OV-3
HL-60 = test system: HL-60
NCI-H522 = test system: NCI-H522
HOP-92 = test system: HOP-92
K562 = test system: K562
TK-10 = test system: TK-10
NCI-H460 = test system: NCI-H460
786-0 = test system: 786-0
SK-MEL-28 = test system: SK-MEL-28
COLO 205 = test system: COLO 205
CCRF-CEM = test system: CCRF-CEM
SF-539 = test system: SF-539
UACC-62 = test system: UACC-62
SK-MEL-2 = test system: SK-MEL-2

Measured: GI50

CC(=O)/C=C/c1cccc(N=S)c1
inactive: SW-620 2.44 µM | IGROV-1 19.2 µM | MOLT-4 > 40.1 µM | UACC-257 29.4 µM | SK-OV-3 > 48.1 µM | HL-60 5.79 µM | NCI-H522 18.6 µM | HOP-92 > 100 µM | K562 4.62 µM | TK-10 > 52.8 µM | NCI-H460 > 36.9 µM | 786-0 6 µM | SK-MEL-28 16.5 µM | COLO 205 20.1 µM | CCRF-CEM 8.24 µM | SF-539 5.9 µM | UACC-62 21.6 µM

Cn1nc(-c2ccccc2)c(C(=O)/C=C/c2ccc(Cl)cc2)c(N2CCCC2)c1=O
inactive: SW-620 4.02 µM | IGROV-1 6.31 µM | MOLT-4 2.38 µM | SK-OV-3 4.99 µM | HL-60 1.92 µM | NCI-H522 2.07 µM | HOP-92 1.67 µM | K562 2.66 µM | TK-10 11.6 µM | NCI-H460 3.86 µM | 786-0 3.13 µM | SK-MEL-28 3.76 µM | COLO 205 2.11 µM | CCRF-CEM 2.46 µM | SF-539 3.55 µM | UACC-62 4.55 µM

O=c1cccccc1O.O=c1cccccc1O.O=c1cccccc1O.[SiH4]
active: UACC-62 0.822 µM
inactive: SW-620 10.4 µM | IGROV-1 12.8 µM | MOLT-4 5.74 µM | UACC-257 21 µM | SK-OV-3 31.8 µM | NCI-H522 2.33 µM | HOP-92 37.9 µM | K562 6.87 µM | TK-10 74 µM | 786-0 33 µM | SK-MEL-28 55.1 µM | COLO 205 11 µM | CCRF-CEM 2.64 µM | SF-539 18.3 µM

CCN(CC)c1ccc(/N=N/c2ccc(-c3nc4cccnc4s3)cc2)cc1
inactive: SW-620 > 100 µM | IGROV-1 > 100 µM | SK-MEL-2 > 100 µM | MOLT-4 > 100 µM | UACC-257 > 100 µM | SK-OV-3 > 100 µM | HL-60 > 100 µM | NCI-H522 > 100 µM | HOP-92 > 100 µM | K562 > 100 µM | TK-10 > 100 µM | NCI-H460 60.3 µM | 786-0 45.4 µM | SK-MEL-28 > 100 µM | COLO 205 > 100 µM | CCRF-CEM > 100 µM | UACC-62 97.9 µM

CN(C)CC/C(=N\Nc1ccc(Cl)cc1Cl)c1ccccc1
inactive: SW-620 16 µM | IGROV-1 10.1 µM | SK-MEL-2 14.5 µM | MOLT-4 5.73 µM | UACC-257 15.9 µM | SK-OV-3 12.3 µM | HL-60 5.07 µM | NCI-H522 > 10 µM | K562 14.3 µM | TK-10 15.1 µM | NCI-H460 13.8 µM | 786-0 13.7 µM | SK-MEL-28 15.2 µM | COLO 205 15.1 µM | CCRF-CEM 12.7 µM | SF-539 18.1 µM | UACC-62 14.6 µM

Cn1c(=O)c(C(=O)NC(=O)NCCCCCOC(=O)CCCCCCCCCCC(=O)OCCCCCNC(=O)NC(=O)c2cn(Cc3ccccc3)c(=O)n(C)c2=O)cn(Cc2ccccc2)c1=O
inactive: SW-620 > 100 µM | IGROV-1 > 100 µM | SK-MEL-2 > 100 µM | UACC-257 > 100 µM | SK-OV-3 > 100 µM | HL-60 > 100 µM | NCI-H522 > 100 µM | HOP-92 71.4 µM | K562 > 100 µM | TK-10 > 100 µM | NCI-H460 > 100 µM | 786-0 > 100 µM | SK-MEL-28 > 100 µM | COLO 205 > 100 µM | CCRF-CEM > 100 µM | SF-539 > 100 µM | UACC-62 > 100 µM

N#C/C(=C/c1cccc2ccccc12)C(=O)c1ccccc1
inactive: SW-620 16.8 µM | IGROV-1 24.3 µM | SK-MEL-2 18.9 µM | MOLT-4 14.7 µM | UACC-257 > 10 µM | SK-OV-3 > 100 µM | HL-60 19.4 µM | NCI-H522 21.5 µM | K562 > 10 µM | TK-10 35.4 µM | NCI-H460 27.5 µM | 786-0 16.3 µM | SK-MEL-28 13.9 µM | CCRF-CEM 16.6 µM | SF-539 17.7 µM | UACC-62 18.3 µM

CCC(=O)c1c(NOC2OC(COC(C)=O)C(OC(C)=O)C(OC(C)=O)C2OC(C)=O)nc(OC)n(C)c1=O (stereo not drawn)
inactive: SW-620 > 100 µM | IGROV-1 > 100 µM | SK-MEL-2 > 100 µM | MOLT-4 > 100 µM | NCI-H522 > 100 µM | K562 > 100 µM | TK-10 > 100 µM | NCI-H460 > 100 µM | 786-0 > 100 µM | SK-MEL-28 > 100 µM | COLO 205 > 100 µM | CCRF-CEM > 100 µM | SF-539 69.2 µM | UACC-62 > 100 µM

CNC1=Nc2ccc(Cl)cc2C(OP(=O)(N2CCOCC2)N2CCOCC2)=NC1
inactive: SW-620 > 100 µM | SK-MEL-2 > 100 µM | MOLT-4 > 100 µM | UACC-257 > 100 µM | HL-60 > 100 µM | NCI-H522 26.5 µM | K562 > 100 µM | TK-10 > 100 µM | NCI-H460 > 100 µM | 786-0 > 100 µM | SK-MEL-28 > 100 µM | CCRF-CEM > 100 µM | SF-539 > 100 µM | UACC-62 > 100 µM
